The source of these data is PMC11289893 (RSC Chemical Biology, 2024).

The subject of this data set is HeLa cells. Kind of data set: Cell proliferation. In kind it is cell-based. To be noted: tested concentrations 0 to 20 μM.

SMILES strings stand for the structures.

`COC[C@H]1OC(=O)c2coc3c2[C@@]1(C)C1=C(C3=O)[C@@H]2CCC(=O)[C@@]2(C)C[C@H]1OC(C)=O` [Wortmannin]: the “cytotoxicity in HeLa cells” value is on record as “did not observe Wortmannin cytotoxicity”.
